From patent publication US4720387A (priority 1983, dated 1988)

How the values were obtained:
[1] = in vivo
Source text: [referred to Exp. 6-II), Table 12].
The frequency of the adverse reaction was compared between the two groups.

[2] = blood-level and excretion of native pinacidil; assay type: in vivo, inpatients suffering from hypertension
[3] = relationship between antihypertensive effect and blood-level of pinacidil; design: species or system inpatients suffering from hypertension; details: in vivo
Source text: The term ΔMBP means the difference between the values of Mean Blood Pressure before and after the administration, and FIGS. 1 and 2 show the average of blood-levels or ΔMBP on the five inpatients.

[4] = adverse reaction at various dosages in inpatients; assay type: in vivo, inpatients suffering from hypertension; details: higher dosage affording sufficient therapeutic time
[5] = in vivo; cited from earlier work

## CC(N/C(=N\C#N)Nc1ccncc1)C(C)(C)C (stereo not drawn) [pinacidil, N"-cyano-N-4-pyridyl-N'-1,2,2-trimethylpropylguanidine]
[1]
  blood-level at which side-effects (headache) occasionally occur: over 100 ng/ml
  maximum safety level (blood-level): 100 ng/mL
[2]; highest dosage of unprepared pinacidil to avoid the adverse reaction
  time the effective blood-level is kept: about 6 hours
[2]; human, blood, administered after a meal, read-out: biological half-life period
  half-life: 1 to 2 h
[2]; human, blood, administered after a meal, read-out: time to maximum concentration
  Tmax: 1 to 3 h
[3]
  blood-level at which the antihypertensive effect was minimum (minimum effective blood-level): around 20 ng/ml
  blood-level at which the antihypertensive effect was satisfactory: over 30 ng/ml
[4]
  adverse reaction at higher dosage: usually induced the adverse reaction (i.e. headache)
[5]
  dose proportionality of blood-level: increases in proportion to its dose level
